Read-outs that look alike come from different tables or passages of the source.
Assays:
[1] = system: HeLa cervical adenocarcinoma; assay: Inhibition of in vitro cell proliferation (HeLa); assay type: cell-based, human; conditions: Homo sapiens, 14C-thymidine incorporation;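 further: cells exposed to compound for 24 h, then labelled 24 h with methyl 14C-thymidine, with uptake into DNA counted by scintillation against DMSO-only control wells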
CDK1:Cyclin-B = target: T1, CDK1:Cyclin-B (Homo sapiens, UniProt P06493); assay: CDK1 Screening Assay; assay type: biochemical
T1 construct: purchased New England Biolabs, Beverly, Mass; 6020; host or cells: insect cells
T1 sequence (P06493 whole entry): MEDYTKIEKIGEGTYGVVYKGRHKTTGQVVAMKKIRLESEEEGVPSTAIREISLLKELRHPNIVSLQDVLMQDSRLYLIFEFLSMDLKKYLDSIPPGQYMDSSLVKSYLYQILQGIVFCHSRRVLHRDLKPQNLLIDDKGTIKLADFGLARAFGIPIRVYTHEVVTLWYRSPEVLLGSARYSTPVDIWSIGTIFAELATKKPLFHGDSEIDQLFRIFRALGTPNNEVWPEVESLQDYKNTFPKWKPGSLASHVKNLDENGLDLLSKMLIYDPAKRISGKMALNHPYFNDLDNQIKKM
T1 sequence (P14635 whole entry partner): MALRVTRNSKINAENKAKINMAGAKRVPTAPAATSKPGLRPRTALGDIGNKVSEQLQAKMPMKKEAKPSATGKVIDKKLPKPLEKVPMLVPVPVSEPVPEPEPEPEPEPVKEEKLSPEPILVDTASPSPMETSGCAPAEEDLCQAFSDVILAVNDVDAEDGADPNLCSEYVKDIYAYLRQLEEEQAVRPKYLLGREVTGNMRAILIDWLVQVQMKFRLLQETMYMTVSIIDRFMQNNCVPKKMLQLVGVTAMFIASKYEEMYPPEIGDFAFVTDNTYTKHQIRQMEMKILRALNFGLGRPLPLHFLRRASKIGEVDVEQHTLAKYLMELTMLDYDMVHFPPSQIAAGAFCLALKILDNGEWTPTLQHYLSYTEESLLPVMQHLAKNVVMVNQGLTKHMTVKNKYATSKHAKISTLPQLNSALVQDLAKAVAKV
Protocol: (§1) A kinase reaction mixture was prepared containing 50 mM Tris-HCl pH=8, 10 mM MgCl2, 0.1 mM Na3PO4, 1 mM DTT, 10 μM ATP, 0.025 μM biotinylated histone-H1 peptide substrate and 0.2 μCuries per well ^33P-γ-ATP (2000-3000 Ci/mmol). 70 μL of the kinase reaction mixture was dispensed into the well of a streptavidin coated FlashPlate™ (Cat. # SMP103, NEN, Boston, Mass.). Then 1 μL of test compound stock in 100% DMSO was added to the wells resulting in a final concentration of 1% DMSO in the reaction with a 100 μL final reaction volume.
(§2) The CDK1:Cyclin-B protein was diluted in 50 mM Tris-HCl pH=8.0, 0.1% BSA at a concentration of 1 ng per μL and 30 μL (30 ng enzyme per test well) was added to each well to initiate the reaction. The reaction was incubated for one hour at 30° C. At the end of the 1 hour incubation, the reaction was terminated by aspirating the mixture from the plate and washing the wells twice with PBS containing 100 mM EDTA. The histone-H1 biotinylated peptide substrate became immobilized on the Flashplate™ and the incorporation of ^33P-γ-ATP was measured by reading the plate on a scintillation counter. Inhibition of the enzymatic activity of CDK1 was measured by observing a reduced amount of ^33P-γ-ATP incorporated into the immobilized peptide.
The CDK1 used was isolated from insect cells expressing both the human CDK1 catalytic subunit and its positive regulatory subunit cyclin B (New England Biolabs, Beverly, Mass., Cat. #6020).

murine Aurora-A = target: T2, murine Aurora-A (Mus musculus, UniProt P97477); assay: Aurora-A Screening Assay; assay type: biochemical
T2 construct: replaced with the full length protein encoding the murine Aurora-A; made in house; host or cells: sf9 insect cells
T2 sequence (P97477 1-395): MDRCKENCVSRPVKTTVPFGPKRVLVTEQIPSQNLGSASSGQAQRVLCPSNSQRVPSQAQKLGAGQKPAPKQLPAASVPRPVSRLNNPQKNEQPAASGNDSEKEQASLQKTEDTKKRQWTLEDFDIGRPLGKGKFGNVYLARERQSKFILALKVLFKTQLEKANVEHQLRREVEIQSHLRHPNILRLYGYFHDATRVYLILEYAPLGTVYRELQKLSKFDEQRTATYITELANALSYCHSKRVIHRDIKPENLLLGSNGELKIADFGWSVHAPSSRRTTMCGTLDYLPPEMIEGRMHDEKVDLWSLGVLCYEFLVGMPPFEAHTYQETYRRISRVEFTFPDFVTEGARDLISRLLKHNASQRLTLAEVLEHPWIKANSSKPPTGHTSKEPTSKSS
Protocol: as §1, §2
The Aurora-A kinase assay was carried out using the CDK kinase assay procedure except that the enzyme was replaced with the full length protein encoding the murine Aurora-A (Accession #GB BC014711) expressed and purified from sf9 insect cells.

HCT-116 colon carcinoma = assay: Inhibition of in vitro cell proliferation (HCT116); assay type: cell-based, human; conditions: Homo sapiens, HCT-116, 14C-thymidine incorporation;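 further: cells exposed to compound for 24 h, then 14C-thymidine added for a further 24 h and its uptake into DNA counted by scintillation, DMSO-only wells as control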
[2] = target: T3, rat VEGF-R2 kinase domain (Rattus norvegicus, UniProt O08775); assay: VEGF-R2 Screening Assay; assay type: biochemical
T3 construct: amino acids 786-1343 of the rat VEGF-R2 kinase domain; polyhistidine (N)
T3 sequence (O08775 786-1343): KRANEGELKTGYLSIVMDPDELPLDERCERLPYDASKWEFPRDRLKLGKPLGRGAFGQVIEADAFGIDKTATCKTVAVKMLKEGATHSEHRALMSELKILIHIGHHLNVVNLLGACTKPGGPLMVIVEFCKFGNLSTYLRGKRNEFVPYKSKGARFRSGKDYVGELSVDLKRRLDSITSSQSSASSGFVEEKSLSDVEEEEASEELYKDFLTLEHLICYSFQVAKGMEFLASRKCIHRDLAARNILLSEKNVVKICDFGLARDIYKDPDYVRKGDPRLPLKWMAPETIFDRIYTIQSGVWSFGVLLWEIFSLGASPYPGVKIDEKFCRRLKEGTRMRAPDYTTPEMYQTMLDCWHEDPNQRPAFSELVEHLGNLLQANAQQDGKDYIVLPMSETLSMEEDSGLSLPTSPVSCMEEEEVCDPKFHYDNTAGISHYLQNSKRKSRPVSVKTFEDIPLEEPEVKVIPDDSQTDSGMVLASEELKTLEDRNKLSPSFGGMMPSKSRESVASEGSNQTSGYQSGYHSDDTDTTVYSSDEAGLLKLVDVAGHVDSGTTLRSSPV

A375 malignant melanoma = assay: Inhibition of in vitro cell proliferation (A375); assay type: cell-based, human; conditions: Homo sapiens, A-375, 14C-thymidine incorporation;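 further: cells plated for 24 h, given compound for 24 h, then labelled with 14C-thymidine for another 24 h, with DMSO-only wells as control and counts read by scintillation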
HER2 cytoplasmic domain = target: T4, HER2 cytoplasmic domain (Homo sapiens, UniProt P04626); assay: HER2 Kinase Screening Assay; assay type: biochemical; conditions: > means no observed 50% inhibition at the indicated test concentration; ~ means approximately 50% inhibition at that concentration
T4 construct: polyhistidine (N)
T4 sequence (P04626 676-1255 limits assumed): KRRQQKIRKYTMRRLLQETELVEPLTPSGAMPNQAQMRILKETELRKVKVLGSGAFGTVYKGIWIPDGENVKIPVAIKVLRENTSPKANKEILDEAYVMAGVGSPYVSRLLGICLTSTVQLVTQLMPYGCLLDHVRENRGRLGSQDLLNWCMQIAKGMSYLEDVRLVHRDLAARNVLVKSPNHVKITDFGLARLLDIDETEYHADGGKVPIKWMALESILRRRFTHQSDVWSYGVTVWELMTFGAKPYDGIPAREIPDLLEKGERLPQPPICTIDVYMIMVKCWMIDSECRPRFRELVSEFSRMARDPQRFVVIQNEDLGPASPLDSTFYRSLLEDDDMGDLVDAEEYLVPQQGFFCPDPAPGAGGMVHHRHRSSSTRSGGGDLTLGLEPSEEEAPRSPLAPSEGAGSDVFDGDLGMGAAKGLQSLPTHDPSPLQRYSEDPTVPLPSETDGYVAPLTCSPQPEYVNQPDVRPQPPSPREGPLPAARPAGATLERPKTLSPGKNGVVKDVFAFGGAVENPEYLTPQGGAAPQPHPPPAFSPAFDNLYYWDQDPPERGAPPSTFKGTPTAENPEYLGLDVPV
Protocol: as §1, §2
The HER2 kinase assay was carried out using the CDK kinase assay procedure except that the enzyme was replaced with a HER2 construct containing a polyhistidine tag at the N-terminus followed by 24 additional amino acids and the HER2 cytoplasmic domain beginning at amino acid 676 (Accession #M11730) to the end.

[3] = > means no observed 50% inhibition at the indicated test concentration, ~ means approximately 50% inhibition at that concentration, read-out: IC50 VEGF-R2

SMILES | IC50 [1] | IC50 (CDK1:Cyclin-B) | IC50 (murine Aurora-A) | IC50 (HCT-116 colon carcinoma) | IC50 [2, 3] | IC50 (A375 malignant melanoma) | IC50 (HER2 cytoplasmic domain) | IC50 ([2]; IC50 VEGF-R2)
Cc1cc2c(F)c(Oc3ncnc(N)c3C=NOCCCCN3CCCC3)ccc2[nH]1 [Cpd 25, 4-amino-6-(4-fluoro-2-methyl-1H-indol-5-yloxy)-pyrimidine-5-carbaldehyde O-(4-pyrrolidin-1-yl-butyl)-oxime] | > 100 µM | > 100 µM | > 10 µM | 0.1 µM | 0.13 µM | > 100 µM | 0.596 µM | –
Cc1cc2c(F)c(Oc3ncnc(N)c3C=NOCCCCN3CCOCC3)ccc2[nH]1 [Cpd 26, 4-amino-6-(4-fluoro-2-methyl-1H-indol-5-yloxy)-pyrimidine-5-carbaldehyde O-(4-morpholin-4-yl-butyl)-oxime] | > 100 µM | > 100 µM | > 100 µM | > 1 µM | 0.048 µM | > 100 µM | 1.02 µM | –
Cc1cc2c(F)c(Oc3ncnc(N)c3C=NOCC3CC3)ccc2[nH]1 [Cpd 32, 4-amino-6-(4-fluoro-2-methyl-1H-indol-5-yloxy)-pyrimidine-5-carbaldehyde O-cyclopropylmethyl-oxime] | 0.324 µM | > 100 µM | > 100 µM | 0.333 µM | 0.046 µM | 0.07 µM | > 100 µM | –
Cc1cc2c(F)c(Oc3ncnc(N)c3C=NOCCCCO)ccc2[nH]1 [Cpd 38, 4-amino-6-(4-fluoro-2-methyl-1H-indol-5-yloxy)-pyrimidine-5-carbaldehyde O-(4-hydroxy-butyl)-oxime] | 1.83 µM | > 100 µM | > 100 µM | 2.34 µM | 0.0577 µM | 0.618 µM | 0.868 µM | –
CON=Cc1c(N)ncnc1Oc1ccc2c(c1)cc(C)n2C(=O)NCCO [Cpd 39, 5-[6-amino-5-(methoxyimino-methyl)-pyrimidin-4-yloxy]-2-methyl-indole-1-carboxylic acid (2-hydroxy-ethyl)-amide] | 4.37 µM | > 100 µM | > 100 µM | 3.43 µM | 0.108 µM | 3.77 µM | > 10 µM | –
CON=Cc1c(N)ncnc1Oc1ccc2c(c1)cc(C)n2C(=O)NCCCO [Cpd 40, 5-[6-amino-5-(methoxyimino-methyl)-pyrimidin-4-yloxy]-2-methyl-indole-1-carboxylic acid (3-hydroxy-propyl)-amide] | 4.24 µM | 28 µM | > 100 µM | 4.54 µM | 0.0304 µM | 2.59 µM | > 10 µM | –
CON=Cc1c(N)ncnc1Oc1ccc2c(c1)cc(C)n2C(=O)NCCCCN1CCCC1 [Cpd 42, 5-[6-amino-5-(methoxyimino-methyl)-pyrimidin-4-yloxy]-2-methyl-indole-1-carboxylic acid (4-pyrrolidin-1-yl-butyl)-amide] | > 10 µM | > 100 µM | > 100 µM | > 10 µM | 0.0542 µM | > 1 µM | > 10 µM | –
CON=Cc1c(N)ncnc1Oc1ccc2c(c1)cc(C)n2C(=O)NCc1ccccc1 [Cpd 47, 5-[6-amino-5-(methoxyimino-methyl)-pyrimidin-4-yloxy]-2-methyl-indole-1-carboxylic acid benzylamide] | > 10 µM | > 100 µM | > 100 µM | > 10 µM | > 100 µM | > 10 µM | > 100 µM | –
CCCNC(=O)n1c(C)cc2cc(Oc3ncnc(N)c3C=NOC)ccc21 [Cpd 48, 5-[6-amino-5-(methoxyimino-methyl)-pyrimidin-4-yloxy]-2-methyl-indole-1-carboxylic acid propylamide] | 3.37 µM | > 100 µM | > 100 µM | 1.22 µM | 0.0076 µM | 1.15 µM | > 10 µM | –
CCCNC(=O)Nc1ccc(Oc2ncnc(N)c2C=NOC)cc1Cl [Cpd 52, 1-{4-[6-amino-5-(methoxyimino-methyl)-pyrimidin-4-yloxy]-2-chloro-phenyl}-3-propyl-urea] | > 1 µM | > 100 µM | > 100 µM | > 1 µM | – | > 1 µM | > 100 µM | 0.0275 µM
C=CCNC(=O)Nc1ccc(Oc2ncnc(N)c2C=NOC)cc1Cl [Cpd 53, 1-allyl-3-{4-[6-amino-5-(methoxyimino-methyl)-pyrimidin-4-yloxy]-2-chloro-phenyl}-urea] | > 1 µM | > 100 µM | > 100 µM | > 1 µM | 0.0191 µM | > 1 µM | > 10 µM | –
CON=Cc1c(N)ncnc1Oc1ccc(NC(=O)Nc2ccccc2)c(Cl)c1 [Cpd 54, 1-{4-[6-amino-5-(methoxyimino-methyl)-pyrimidin-4-yloxy]-2-chloro-phenyl}-3-phenyl-urea] | > 100 µM | > 100 µM | > 100 µM | > 100 µM | 0.003 µM | > 100 µM | > 100 µM | –
CON=Cc1c(N)ncnc1Oc1ccc(NC(=O)Nc2ccccc2Cl)c(Cl)c1 [Cpd 55, 1-{4-[6-amino-5-(methoxyimino-methyl)-pyrimidin-4-yloxy]-2-chloro-phenyl}-3-(2-chloro-phenyl)-urea] | > 10 µM | > 100 µM | > 10 µM | > 10 µM | 0.0026 µM | > 10 µM | 1.82 µM | –
CON=Cc1c(N)ncnc1Oc1ccc(NC(=O)Nc2ccccc2F)c(Cl)c1 [Cpd 56, 1-{4-[6-amino-5-(methoxyimino-methyl)-pyrimidin-4-yloxy]-2-chloro-phenyl}-3-(2-fluoro-phenyl)-urea] | > 10 µM | > 100 µM | > 100 µM | > 10 µM | – | > 10 µM | > 10 µM | 0.0033 µM
CON=Cc1c(N)ncnc1Oc1ccc(NC(=O)Nc2cccc(F)c2)c(Cl)c1 [Cpd 57, 1-{4-[6-amino-5-(methoxyimino-methyl)-pyrimidin-4-yloxy]-2-chloro-phenyl}-3-(3-fluoro-phenyl)-urea] | > 10 µM | > 100 µM | > 100 µM | > 10 µM | 0.0017 µM | > 10 µM | > 10 µM | –
CON=Cc1c(N)ncnc1Oc1ccc(NC(=O)Nc2ccccc2OC)c(Cl)c1 [Cpd 58, 1-{4-[6-amino-5-(methoxyimino-methyl)-pyrimidin-4-yloxy]-2-chloro-phenyl}-3-(2-methoxy-phenyl)-urea] | 11.9 µM | > 100 µM | > 100 µM | 8.19 µM | 0.0025 µM | 5.06 µM | 1.7 µM | –
CON=Cc1c(N)ncnc1Oc1ccc(NC(=O)Nc2cccc(Cl)c2)c(Cl)c1 [Cpd 59, 1-{4-[6-amino-5-(methoxyimino-methyl)-pyrimidin-4-yloxy]-2-chloro-phenyl}-3-(3-chloro-phenyl)-urea] | > 10 µM | > 100 µM | > 100 µM | > 10 µM | 0.003 µM | > 10 µM | > 1 µM | –
CON=Cc1c(N)ncnc1Oc1ccc(NC(=O)Nc2ccc(F)cc2)c(Cl)c1 [Cpd 60, 1-{4-[6-amino-5-(methoxyimino-methyl)-pyrimidin-4-yloxy]-2-chloro-phenyl}-3-(4-fluoro-phenyl)-urea] | > 10 µM | > 100 µM | > 10 µM | > 10 µM | 0.0028 µM | > 10 µM | > 100 µM | –
